From PMC4848594 (Viruses, 2016)

Tests used:
RHDV RdRp [1] = target: T1, RHDV RdRp (Rabbit hemorrhagic disease virus-V351, UniProt P27411); assay: PicoGreen dsRNA assay, substrate inhibition model; type: biochemical; settings: substrate inhibition constant; rGTP 0–2.0 mM, 20 ng/μL poly(C), 2.5 mM MnCl2, pH 7.5, 30 °C
T1 construct: gene ORF1

RCV RdRp [2] = assay: PicoGreen dsRNA assay, substrate inhibition model; type: biochemical, Rabbit calicivirus Australia 1 (Lagovirus europaeus GI.4); settings: substrate inhibition constant; rGTP 0–2.0 mM, 20 ng/μL poly(C), 2.5 mM MnCl2, pH 7.5, 30 °C
NoV RdRp [3] = assay: PicoGreen dsRNA assay, substrate inhibition model; type: biochemical, Norovirus GII.4 (Norwalk virus, Norovirus norwalkense); settings: substrate inhibition constant; rGTP 0–2.0 mM, 20 ng/μL poly(C), 2.5 mM MnCl2, pH 7.5, 30 °C
RCV RdRp [4] = assay: PicoGreen dsRNA assay, Michaelis-Menten model; type: biochemical, Rabbit calicivirus Australia 1 (Lagovirus europaeus GI.4); settings: 20 ng/μL poly(C), 2.5 mM MnCl2, 5 mM DTT, pH 7.5, 30 °C; Michaelis-Menten fit
NoV RdRp [5] = assay: PicoGreen dsRNA assay, Michaelis-Menten model; type: biochemical, Norovirus GII.4 (Norwalk virus, Norovirus norwalkense); settings: 20 ng/μL poly(C), 2.5 mM MnCl2, 5 mM DTT, pH 7.5, 30 °C; Michaelis-Menten fit
RHDV RdRp [6] = target: T1, RHDV RdRp; assay: PicoGreen dsRNA de novo polymerase assay; type: biochemical
RCV RdRp [7] = assay: PicoGreen dsRNA de novo polymerase assay; type: biochemical, Rabbit calicivirus Australia 1 (Lagovirus europaeus GI.4); settings: 45 μM rGTP, 10 ng/μL poly(C), 2.5 mM MnCl2, pH 7.5, 30 °C, 10 min preincubation; non-nucleoside inhibitor
[8] = tested on: Nc1nc2c(ncn2[C@@H]2O[C@H](COP(=O)(O)OP(=O)(O)OP(=O)(O)O)[C@@H](O)[C@H]2O)c(=O)[nH]1; assay: purified protein; settings: 20 ng/μL poly(C), 2.5 mM MnCl2, 5 mM DTT, pH 7.5, 30 °C, Michaelis-Menten fit

T1 sequence (P27411 1252-1767): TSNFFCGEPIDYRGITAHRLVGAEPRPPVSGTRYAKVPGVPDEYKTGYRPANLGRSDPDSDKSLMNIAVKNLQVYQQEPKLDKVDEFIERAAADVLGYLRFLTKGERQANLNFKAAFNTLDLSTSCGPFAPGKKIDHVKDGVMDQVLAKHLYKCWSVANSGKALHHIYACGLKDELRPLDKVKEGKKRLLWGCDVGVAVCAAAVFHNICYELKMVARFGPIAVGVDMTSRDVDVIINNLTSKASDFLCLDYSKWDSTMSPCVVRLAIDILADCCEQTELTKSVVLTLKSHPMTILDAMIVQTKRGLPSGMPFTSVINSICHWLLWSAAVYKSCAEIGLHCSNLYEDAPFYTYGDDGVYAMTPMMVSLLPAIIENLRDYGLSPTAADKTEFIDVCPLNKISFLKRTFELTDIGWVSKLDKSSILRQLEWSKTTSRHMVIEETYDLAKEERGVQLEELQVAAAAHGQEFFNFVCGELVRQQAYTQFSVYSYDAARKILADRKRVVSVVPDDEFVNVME

With `Nc1nc2c(ncn2[C@@H]2O[C@H](COP(=O)(O)OP(=O)(O)OP(=O)(O)O)[C@@H](O)[C@H]2O)c(=O)[nH]1` [rGTP] the “RHDV RdRp” value (RHDV RdRp [1]) was 2.1 ± 0.4 mM, the “RCV RdRp” value (RCV RdRp [2]) was 1.7 ± 0.2 mM and the “NoV RdRp” value (NoV RdRp [3]) was 0.6 ± 0.2 mM. For the same molecule, the Km (RCV RdRp [4]) was 5.7 ± 0.7 µM and the Km (NoV RdRp [5]) was 77.7 ± 14.5 µM.

`Cc1nc(-c2ccccc2)sc1C(=O)Nc1sc2c(c1C#N)CCC2` [NIC02] was tested, and the IC50 (RHDV RdRp [6]) was 19.9 µM and the IC50 (RCV RdRp [7]) was 13.5 µM.

With “RHDV RdRp (Rabbit hemorrhagic disease virus-V351)” the Km [8] was 14.6 ± 2.4 µM.
